A value given as a limit tells only on which side of the number the result lay.

The target in one test is T1, rat A3 receptors (Rattus norvegicus, UniProt P28647).
T1 construct: expressed in transfected cells
T1 sequence (P28647 1-320): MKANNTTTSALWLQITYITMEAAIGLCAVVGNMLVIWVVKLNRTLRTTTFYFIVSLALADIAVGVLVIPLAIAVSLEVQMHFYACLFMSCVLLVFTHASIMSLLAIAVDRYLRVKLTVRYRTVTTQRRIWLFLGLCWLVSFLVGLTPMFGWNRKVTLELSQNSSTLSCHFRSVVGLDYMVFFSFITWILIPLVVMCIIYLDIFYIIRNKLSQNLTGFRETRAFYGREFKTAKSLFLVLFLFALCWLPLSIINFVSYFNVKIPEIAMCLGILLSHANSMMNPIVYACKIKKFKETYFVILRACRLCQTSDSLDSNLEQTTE
In words: Displacement of specific [125I]AB-MECA binding at rat A3 receptors stably expressed in CHO cells. Conditions: for Ki / rA3/hA3 / rA1/rA3: Table 4; for Ki: [125I]AB-MECA, CHO cells, n = 3-5, read-out: rA3 Ki; for rA3/hA3: ratio of affinities at rat vs. human A3 receptors; for rA1/rA3: ratio of affinities rat A1 vs rat A3.

The target of the next test is T2, A2A adenosine receptors (Rattus norvegicus, UniProt P30543).
T2 construct: from tissue
T2 sequence (P30543 whole entry): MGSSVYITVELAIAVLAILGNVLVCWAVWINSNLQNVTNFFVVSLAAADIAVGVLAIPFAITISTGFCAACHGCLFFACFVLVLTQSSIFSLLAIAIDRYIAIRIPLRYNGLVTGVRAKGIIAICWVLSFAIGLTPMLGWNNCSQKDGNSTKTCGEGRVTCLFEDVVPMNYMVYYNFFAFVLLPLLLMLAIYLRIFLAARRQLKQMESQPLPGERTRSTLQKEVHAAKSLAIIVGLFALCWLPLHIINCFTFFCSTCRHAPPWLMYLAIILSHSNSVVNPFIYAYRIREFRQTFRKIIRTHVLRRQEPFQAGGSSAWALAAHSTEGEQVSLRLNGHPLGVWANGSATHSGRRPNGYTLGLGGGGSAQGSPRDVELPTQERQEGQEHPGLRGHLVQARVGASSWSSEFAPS
Put plainly: Displacement of specific [3H]CGS 21680 binding in rat striatal membranes. Conditions: for rA2A displacement of specific binding (class d): Table 2, at 10^−4 M; for Ki: Table 2, compounds 33-58, [3H]CGS 21680, rat striatal membranes, n = 3-6, read-out: rA2A Ki ± S.E.M.

A further test addresses T3, human A3 receptors (Homo sapiens, UniProt P0DMS8).
T3 construct: expressed in transfected cells
T3 sequence (P0DMS8 1-318): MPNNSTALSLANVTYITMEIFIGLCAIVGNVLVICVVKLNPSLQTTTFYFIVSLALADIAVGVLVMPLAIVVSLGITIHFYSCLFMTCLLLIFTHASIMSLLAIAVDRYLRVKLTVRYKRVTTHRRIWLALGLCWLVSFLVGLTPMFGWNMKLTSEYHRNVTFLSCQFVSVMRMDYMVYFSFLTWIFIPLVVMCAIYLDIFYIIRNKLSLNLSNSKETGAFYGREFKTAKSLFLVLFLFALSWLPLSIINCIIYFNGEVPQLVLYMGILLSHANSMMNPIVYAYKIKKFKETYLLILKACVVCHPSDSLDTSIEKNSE
In words: Displacement of specific [125I]AB-MECA binding at human A3 receptors expressed in HEK cells, in membranes. Conditions: for Ki: Table 2, compounds 33-58, [125I]AB-MECA, HEK cell membranes, n = 3-4, read-out: hA3 Ki ± S.E.M.; for rA1/hA3: Table 2, ratio of affinities rat A1 vs human A3.

A further test deals with T4, A1 adenosine receptors (Rattus norvegicus, UniProt P25099).
T4 construct: from tissue
T4 sequence (P25099 1-326): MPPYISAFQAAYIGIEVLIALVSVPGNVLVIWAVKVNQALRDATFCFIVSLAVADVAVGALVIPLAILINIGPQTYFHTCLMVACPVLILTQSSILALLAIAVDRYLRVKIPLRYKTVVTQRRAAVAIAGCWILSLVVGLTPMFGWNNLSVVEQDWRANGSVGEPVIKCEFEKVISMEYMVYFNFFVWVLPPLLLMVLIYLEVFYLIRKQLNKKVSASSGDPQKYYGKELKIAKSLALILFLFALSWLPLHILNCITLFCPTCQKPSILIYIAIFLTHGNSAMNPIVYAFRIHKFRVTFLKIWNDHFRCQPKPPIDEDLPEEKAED
Put plainly: Displacement of specific [3H]R-PIA binding in rat brain membranes. Conditions: for Ki: Table 2, compounds 33-58, [3H]R-PIA, rat brain membranes, n = 3-5, read-out: rA1 Ki ± S.E.M.

In the case of `CCCOC(=O)c1c(-c2ccccc2)nc(CC)c(C(=O)SCC)c1CCC` [Compound 49b, 5-Propyl 2-ethyl-4-propyl-3-(ethylsulfanylcarbonyl)-6-phenylpyridine-5-carboxylate], at rat A3 receptors, the Ki was found to be 113 ± 12 nM, the rA3/hA3 stood at 6.0 and the rA1/rA3 is given as 140. Further, the “affinity at rat and human A3 receptors (in words)” value at rat A3 receptors (both species) is given as “high affinity at both species”. Moreover, on A2A adenosine receptors, the “rA2A displacement of specific binding (class d)” value is on record as “d (10^−4) (Displacement of <10% of specific binding at the indicated concentration (M).)”. Further, at human A3 receptors, the Ki came to 24.5 ± 4 nM and the rA1/hA3 was 7400. Further, on A1 adenosine receptors, the Ki came out at 18200 ± 9000 nM.
Take `CCSC(=O)c1c(CC)nc(-c2ccccc2)c(C(=O)OCCO)c1CC` [Compound 50, 5-Hydroxylethyl 2,4-diethyl-3-(ethylsulfanylcarbonyl)-6-phenylpyridine-5-carboxylate]: on rat A3 receptors, the Ki stood at 2870 ± 480 nM, the rA3/hA3 was 15 and the rA1/rA3 came to 6.1. The Ki on A2A adenosine receptors is 10000 ± 3000 nM. Besides, at human A3 receptors, the Ki was found to be 188 ± 61 nM and the rA1/hA3 was found to be 93. Besides, the inhibition constant Ki on A1 adenosine receptors worked out at 17400 ± 5290 nM.
Consider `CCCCc1nc(-c2ccccc2)c(C(=O)OCC)c(CC)c1C(=O)SCC` [Compound 57, 5-Ethyl 2-butyl-4-ethyl-3-(ethylsulfanylcarbonyl)-6-phenylpyridine-5-carboxylate], for which, at rat A3 receptors, the inhibition constant (Ki) came to 2260 ± 50 nM, the rA3/hA3 turned out to be 64 and the rA1/rA3 stood at 18. Also, at A2A adenosine receptors, the “rA2A displacement of specific binding (class d)” value was “d (10^−4) (Displacement of <10% of specific binding at the indicated concentration (M).)”. Besides, on human A3 receptors, the Ki was found to be 35 ± 9.1 nM and the rA1/hA3 came to 1200. Besides, the Ki at A1 adenosine receptors stood at 40300 ± 7400 nM.
For the compound `CCCc1c(C(=O)SCC)c(C)nc(-c2ccccc2)c1C(=O)OCC` [Compound 38, 5-Ethyl-2-methyl-4-propyl-3-(ethylsulfanylcarbonyl)-6-phenylpyridine-5-carboxylate], at rat A3 receptors, the Ki was determined as 650 ± 70 nM, the rA3/hA3 was 3.4 and the rA1/rA3 is reported as above 100. Moreover, at A2A adenosine receptors, the Ki came out at 7530 ± 2700 nM. Besides, at human A3 receptors, the Ki is 194 ± 51 nM and the rA1/hA3 is listed as above 700. Further, the “rA1 percentage of specific binding displaced” value at A1 adenosine receptors (Table 2, at 10^−4 M) was 29 ± 6% (10^−4).
Consider `CCOC(=O)c1c(-c2ccccc2)nc(C)c(C(=O)SCC)c1CC` [Compound 36, 5-Ethyl 2-methyl-4-ethyl-3-(ethylsulfanylcarbonyl)-6-phenylpyridine-5-carboxylate], for which, at rat A3 receptors, the Ki was 1470 ± 340 nM, the rA3/hA3 was found to be 34 and the rA1/rA3 is listed as 10. For the same compound, the Ki on A2A adenosine receptors is 14900 ± 4100 nM. At human A3 receptors, the Ki amounted to 42.9 ± 8.8 nM and the rA1/hA3 is 340. Besides, at A1 adenosine receptors, the Ki stood at 14800 ± 3500 nM.
As to `CCCSC(=O)c1c(CC)nc(-c2ccccc2)c(C(=O)OCC)c1CC` [Compound 53, 5-Ethyl 2,4-diethyl-3-propylsulfanylcarbonyl-6-phenylpyridine-5-carboxylate], the Ki is 294 ± 6 nM at rat A3 receptors, 15700 ± 4400 nM at A2A adenosine receptors, 15.9 ± 5.4 nM on human A3 receptors and 8220 ± 1210 nM at A1 adenosine receptors. On rat A3 receptors, the rA3/hA3 amounted to 18. On rat A3 receptors, the rA1/rA3 worked out at 28. In addition, on human A3 receptors, the rA1/hA3 came to 520.
`CCCc1nc(-c2ccccc2)c(C(=O)OCC)c(CC)c1C(=O)SCC` [Compound 55, 5-Ethyl 2-propyl-4-ethyl-3-(ethylsulfanylcarbonyl)-6-phenylpyridine-5-carboxylate]: the Ki on rat A3 receptors was found to be 590 ± 40 nM; on A2A adenosine receptors, 2820 ± 820 nM; on human A3 receptors, 33.3 ± 10.7 nM; on A1 adenosine receptors, 16700 ± 3000 nM. Besides, the rA3/hA3 on rat A3 receptors amounted to 18. In addition, at rat A3 receptors, the rA1/rA3 is given as 28. Moreover, the rA1/hA3 on human A3 receptors was 500.
